Experimental data from PubChem BioAssay (NCI).
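These data come from cells grown in 96-well plates and exposed to compound for 48 hours at five concentrations. At the GI50, growth is halved. TGI is the concentration that stops growth completely.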

How the values were obtained:
Test in all cases: growth of human tumour cells (NCI), 48 h
[1] = test system: OVCAR-3 ovarian
[2] = test system: NCI-H460 lung
[3] = test system: HS 578T breast
[4] = test system: EKVX NSCLC
[5] = test system: SK-MEL-28 melanoma
[6] = test system: HCT-116 colon
[7] = test system: HOP-62 NSCLC
[8] = test system: A549 NSCLC
[9] = test system: SK-MEL-2 melanoma
[10] = test system: RXF 393 renal
[11] = test system: M14 melanoma
[12] = test system: OVCAR-8 ovarian
[13] = test system: CAKI-1 renal
[14] = test system: OVCAR-5 ovarian
[15] = test system: U251 CNS
[16] = test system: LOX IMVI melanoma
[17] = test system: SK-MEL-5 melanoma
[18] = test system: MCF7 breast
[19] = test system: SF-539 CNS
[20] = test system: UACC-62 melanoma
[21] = test system: HL-60(TB) leukemia
[22] = test system: HT29 colon
[23] = test system: 786-0 renal
[24] = test system: IGROV1 ovarian
[25] = test system: MDA-MB-231 breast
[26] = test system: SW-620 colon
[27] = test system: K-562 leukemia
[28] = test system: SF-268 CNS
[29] = test system: BT-549 breast
[30] = test system: COLO 205 colon
[31] = test system: SK-OV-3 ovarian
[32] = test system: NCI-H226 lung
[33] = test system: UACC-257 melanoma
[34] = test system: HOP-92 NSCLC
[35] = test system: HCC-2998 colon
[36] = test system: SNB-19 CNS
[37] = test system: NCI/ADR-RES ovarian
[38] = test system: A498 renal
[39] = test system: UO-31 renal
[40] = test system: HCT-15 colon
[41] = test system: NCI-H522 lung
[42] = test system: OVCAR-4 ovarian
[43] = test system: SR leukemia
[44] = test system: DU-145 prostate
[45] = test system: MALME-3M melanoma
[46] = test system: MDA-MB-435
[47] = test system: TK-10 renal
[48] = test system: CCRF-CEM leukemia
[49] = test system: SNB-75 CNS
[50] = test system: RPMI-8226 leukemia
[51] = test system: PC-3 prostate
[52] = test system: SF-295 CNS
[53] = test system: NCI-H23 lung
[54] = test system: MOLT-4 leukemia
[55] = test system: ACHN renal
[56] = test system: SN12C renal
[57] = test system: KM12 colon

Compound `COc1cc2c(cc1O)CC[C@@H]1[C@@H]2CC[C@]2(C)[C@@H](OCCCN(C)C)CC[C@@H]12` has a GI50 [1] of 155 nM, a TGI [1] of 543 nM and a GI50 [2] of 163 nM. The TGI [2] was 550 nM, the GI50 [3] was 210 nM and the TGI [3] was 1190 nM. For the same compound, the GI50 [4] was 208 nM, the TGI [4] was 958 nM and the GI50 [5] was 102 nM. It also gave a TGI [5] of 243 nM, a GI50 [6] of 98.1 nM and a TGI [6] of 381 nM. It also gave a GI50 [7] of 182 nM, a TGI [7] of 728 nM and a GI50 [8] of 165 nM. It also gave a TGI [8] of 650 nM, a GI50 [9] of 76.9 nM and a TGI [9] of 198 nM. The GI50 [10] was 88.9 nM, the TGI [10] was 226 nM and the GI50 [11] was 93.3 nM. For the same compound, the TGI [11] was 190 nM, the GI50 [12] was 196 nM and the TGI [12] was 733 nM. The GI50 [13] was 271 nM, the TGI [13] was 904 nM and the GI50 [14] was 296 nM. For the same compound, the TGI [14] was 1140 nM, the GI50 [15] was 126 nM and the TGI [15] was 334 nM. For the same compound, the GI50 [16] was 90.6 nM, the TGI [16] was 173 nM and the GI50 [17] was 83.3 nM. The TGI [17] was 154 nM, the GI50 [18] was 148 nM and the TGI [18] was 439 nM. The GI50 [19] was 86.7 nM, the TGI [19] was 172 nM and the GI50 [20] was 110 nM. It also gave a TGI [20] of 269 nM, a GI50 [21] of 96.8 nM and a TGI [21] of 203 nM. It also gave a GI50 [22] of 96.9 nM, a TGI [22] of 233 nM and a GI50 [23] of 90.5 nM. For the same compound, the TGI [23] was 201 nM, the GI50 [24] was 523 nM and the TGI [24] was 1430 nM. For the same compound, the GI50 [25] was 104 nM, the TGI [25] was 219 nM and the GI50 [26] was 160 nM. It also gave a TGI [26] of 513 nM, a GI50 [27] of 100 nM and a TGI [27] of 331 nM. For the same compound, the GI50 [28] was 182 nM, the TGI [28] was 801 nM and the GI50 [29] was 116 nM. For the same compound, the TGI [29] was 394 nM, the GI50 [30] was 268 nM and the TGI [30] was 1030 nM. For the same compound, the GI50 [31] was 198 nM, the TGI [31] was 675 nM and the GI50 [32] was 617 nM. For the same compound, the TGI [32] was 1570 nM, the GI50 [33] was 104 nM and the TGI [33] was 206 nM. For the same compound, the GI50 [34] was 112 nM, the TGI [34] was 473 nM and the GI50 [35] was 130 nM. The TGI [35] was 346 nM, the GI50 [36] was 303 nM and the TGI [36] was 1060 nM. For the same compound, the GI50 [37] was 133 nM, the TGI [37] was 440 nM and the GI50 [38] was 278 nM. For the same compound, the TGI [38] was 901 nM, the GI50 [39] was 224 nM and the TGI [39] was 860 nM. For the same compound, the GI50 [40] was 125 nM, the TGI [40] was 558 nM and the GI50 [41] was 99.9 nM. It also gave a TGI [41] of 248 nM, a GI50 [42] of 180 nM and a TGI [42] of 871 nM. For the same compound, the GI50 [43] was 120 nM, the TGI [43] was 390 nM and the GI50 [44] was 161 nM. For the same compound, the TGI [44] was 603 nM, the GI50 [45] was 90.2 nM and the TGI [45] was 194 nM. The GI50 [46] was 89.9 nM, the TGI [46] was 182 nM and the GI50 [47] was 154 nM. The TGI [47] was 496 nM, the GI50 [48] was 178 nM and the TGI [48] was 556 nM. For the same compound, the GI50 [49] was 76.8 nM, the TGI [49] was 273 nM and the GI50 [50] was 126 nM. For the same compound, the TGI [50] was 301 nM, the GI50 [51] was 183 nM and the TGI [51] was 748 nM. It also gave a GI50 [52] of 98 nM, a TGI [52] of 208 nM and a GI50 [53] of 119 nM. For the same compound, the TGI [53] was 552 nM, the GI50 [54] was 145 nM and the TGI [54] was 555 nM. It also gave a GI50 [55] of 164 nM, a TGI [55] of 527 nM and a GI50 [56] of 304 nM. For the same compound, the TGI [56] was 1080 nM.
With `COc1ccc(/C=C/C(=O)c2ccc(Cl)cc2Cl)cc1` the GI50 [1] was 18900 nM, the TGI [1] was 39000 nM and the GI50 [2] was 19200 nM. For the same compound, the TGI [2] was 41300 nM, the GI50 [3] was 26200 nM and the TGI [3] was 65400 nM. The GI50 [4] was 20100 nM, the TGI [4] was 47300 nM and the GI50 [5] was 34000 nM. The TGI [5] was 73100 nM, the GI50 [6] was 9050 nM and the TGI [6] was 24500 nM. The GI50 [7] was 20300 nM, the TGI [7] was 48800 nM and the GI50 [8] was 21400 nM. For the same compound, the TGI [8] was 53600 nM, the GI50 [9] was 24400 nM and the TGI [9] was 70900 nM. It also gave a GI50 [10] of 12700 nM, a TGI [10] of 29900 nM and a GI50 [12] of 21300 nM. For the same compound, the TGI [12] was 55900 nM, the GI50 [13] was 23700 nM and the TGI [13] was 50100 nM. The GI50 [14] was 25500 nM, the TGI [14] was 78500 nM and the GI50 [15] was 13200 nM. For the same compound, the TGI [15] was 31300 nM, the GI50 [16] was 15900 nM and the TGI [16] was 32100 nM. It also gave a GI50 [17] of 17900 nM, a TGI [17] of 39000 nM and a GI50 [18] of 9750 nM. For the same compound, the TGI [18] was 27500 nM, the GI50 [19] was 18900 nM and the TGI [19] was 37800 nM. For the same compound, the GI50 [20] was 15000 nM, the TGI [20] was 30300 nM and the GI50 [21] was 9980 nM. The TGI [21] was 38100 nM, the GI50 [22] was 33800 nM and the TGI [22] was greater than 100000 nM. It also gave a GI50 [23] of 13900 nM, a TGI [23] of 30700 nM and a GI50 [24] of 20500 nM. For the same compound, the TGI [24] was 59000 nM, the GI50 [25] was 20500 nM and the TGI [25] was 46700 nM. For the same compound, the GI50 [26] was 9360 nM, the TGI [26] was greater than 100000 nM and the GI50 [27] was 3370 nM. The TGI [27] was greater than 100000 nM, the GI50 [28] was 19000 nM and the TGI [28] was 41100 nM. It also gave a GI50 [29] of 16700 nM, a TGI [29] of 36800 nM and a GI50 [30] of 32000 nM. It also gave a TGI [30] greater than 100000 nM, a GI50 [32] of 20400 nM and a TGI [32] of 46600 nM. For the same compound, the GI50 [36] was 21500 nM, the TGI [36] was 75300 nM and the GI50 [37] was 15900 nM. The TGI [37] was 41500 nM, the GI50 [38] was 10700 nM and the TGI [38] was 24200 nM. It also gave a GI50 [39] of 29100 nM, a TGI [39] of 94500 nM and a GI50 [40] of 12200 nM. It also gave a TGI [40] of 37000 nM, a GI50 [41] of 30100 nM and a TGI [41] greater than 100000 nM. For the same compound, the GI50 [43] was 1880 nM, the TGI [43] was greater than 100000 nM and the GI50 [44] was 16000 nM. The TGI [44] was 33100 nM, the GI50 [57] was 13800 nM and the TGI [57] was 40500 nM. It also gave a GI50 [46] of 11900 nM, a TGI [46] of 44500 nM and a GI50 [47] of 18900 nM. It also gave a TGI [47] of 37400 nM, a GI50 [49] of 22200 nM and a TGI [49] of 44100 nM. The GI50 [50] was 3030 nM, the TGI [50] was 6310 nM and the GI50 [51] was 6100 nM. It also gave a TGI [51] of 21900 nM, a GI50 [52] of 20400 nM and a TGI [52] of 53400 nM. It also gave a GI50 [53] of 18800 nM, a TGI [53] of 42800 nM and a GI50 [54] of 3530 nM. The TGI [54] was greater than 100000 nM, the GI50 [55] was 17300 nM and the TGI [55] was 33800 nM. It also gave a GI50 [56] of 20400 nM and a TGI [56] of 43200 nM.
